# In patent publication US11945814B2, “Salt form” (CRT Pioneer Fund LP, priority 2018, dated 2024):
# Tests used:
# MPS1 kinase = biological target: T1, MPS1 kinase (Homo sapiens, UniProt P33981); conditions: cited from earlier work
# T1 sequence (P33981 1-857): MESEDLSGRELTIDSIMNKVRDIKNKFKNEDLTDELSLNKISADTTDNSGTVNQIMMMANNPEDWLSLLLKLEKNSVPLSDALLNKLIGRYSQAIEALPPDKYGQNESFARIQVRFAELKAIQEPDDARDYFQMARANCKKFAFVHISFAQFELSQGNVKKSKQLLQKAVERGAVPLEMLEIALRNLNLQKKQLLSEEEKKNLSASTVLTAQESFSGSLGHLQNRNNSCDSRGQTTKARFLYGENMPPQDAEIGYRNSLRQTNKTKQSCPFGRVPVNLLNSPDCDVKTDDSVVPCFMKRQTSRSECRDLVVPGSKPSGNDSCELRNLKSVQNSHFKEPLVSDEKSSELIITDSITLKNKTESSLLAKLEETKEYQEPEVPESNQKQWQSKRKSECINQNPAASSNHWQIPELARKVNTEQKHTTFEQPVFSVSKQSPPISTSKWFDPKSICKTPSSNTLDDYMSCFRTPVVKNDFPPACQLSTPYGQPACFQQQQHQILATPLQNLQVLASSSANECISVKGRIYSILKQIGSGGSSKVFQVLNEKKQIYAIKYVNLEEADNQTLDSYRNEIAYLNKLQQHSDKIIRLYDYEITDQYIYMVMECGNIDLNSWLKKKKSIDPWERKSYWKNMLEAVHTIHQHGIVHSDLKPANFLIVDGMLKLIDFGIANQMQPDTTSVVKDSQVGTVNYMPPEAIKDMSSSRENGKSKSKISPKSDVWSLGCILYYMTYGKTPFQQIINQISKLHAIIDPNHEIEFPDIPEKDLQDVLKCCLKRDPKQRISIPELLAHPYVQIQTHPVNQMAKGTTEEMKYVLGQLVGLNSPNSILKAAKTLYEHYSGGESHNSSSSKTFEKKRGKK
# [1] = Solubility of the diphosphate salt in a range of dissolution media; assay type: physicochemical
# Method: The pH of the aqueous mixtures were also measured.
# [2] = Stability assessment after storage at 40° C. and 75% RH for 3 weeks; assay type: physicochemical
# Method: FIG. 3 compares the XRPD of the diphosphate salt (Form A) before (bottom) and after (top) storage at 40° C. and 75% RH.
# [3] = Dynamic vapour sorption (DVS) assessment; assay type: physicochemical
# Method: The ability of samples studied to absorb moisture (or not) over a set of well-determined humidity ranges was assessed.
# Sorption isotherms were obtained using a Hiden Isochema moisture sorption analyser (model IGAsorp), controlled by IGAsorp Systems Software V6.50.48. The sample was maintained at a constant temperature (25° C.) by the instrument controls. The humidity was controlled by mixing streams of dry and wet nitrogen, with a total flow of 250 ml·min^−1. The instrument was verified for relative humidity content by measuring three calibrated Rotronic salt solutions (10-50-88%). The weight change of the sample was monitored as a function of humidity by a microbalance (accuracy+/−0.005 mg). A defined amount of sample (typically 10-15 mg powder) was placed in a tared mesh stainless steel basket under ambient conditions. A full experimental cycle typically consisted of three scans (desorption, sorption, and desorption) at a constant temperature (25° C.) and 10% RH intervals over a 0-90% range (60 minutes for each humidity level).
# Solids are then held post cycle at 0% RH for 2-3 hours and tested by XRPD and the remainder held at 90% RH for 2-3 hours and re-tested by XRPD.
# [4] = Solubility of the diphosphate salt in a range of dissolution media; assay type: physicochemical; conditions: thermodynamic from solid, 37° C., minimum of 21 hours
compound,measurement,setting,value
"CCOc1cc(-c2nncn2C)ccc1Nc1ncc2cc(C)nc(NCC(C)(C)C)c2n1 [compound I, N2-(2-ethoxy-4-(4-methyl-4H-1,2,4-triazol-3-yl)phenyl)-6-methyl-N8-neopentylpyrido[3,4-d]pyrimidine-2,8-diamine]",MPS1 kinase inhibitory activity,MPS1 kinase,potent
"CCOc1cc(-c2nncn2C)ccc1Nc1ncc2cc(C)nc(NCC(C)(C)C)c2n1 [N2-(2-ethoxy-4-(4-methyl-4H-1,2,4-triazol-3-yl)phenyl)-6-methyl-N8-neopentylpyrido[3,4-d]pyrimidine-2,8-diamine]",pH of the aqueous mixture,"[1]; Acetate buffer, pH 4.5",4.25
same,pH of the aqueous mixture,"[1]; FaSSIF, pH 6.5",2.07
same,pH of the aqueous mixture,"[1]; FeSSIF, pH 5",2.36
same,pH of the aqueous mixture,"[1]; NaCl,0.9%/DMSO/Tween 20",2.13
same,pH of the aqueous mixture,"[1]; Phosphate buffer, pH 6.7",2.38
same,pH of the aqueous mixture,"[1]; SFaGF, pH 1.6",1.72
same,pH of the aqueous mixture,[1]; Sodium chloride 0.9% w/v,1.88
same,pH of the aqueous mixture,"[1]; Water, deionised",1.91
same,Chemical degradation after storage,[2],no evidence of chemical degradation
same,Hydration after storage,[2],no evidence
same,Form modification after storage (XRPD),[2]; FIG. 3,No evidence of form modification
same,Change in appearance after storage,[2]; loose screw top vials,No change in appearance
same,"DVS profile (reversibility, hysteresis)","[3]; 0-90% RH, 25° C., FIG. 4",reversible water uptake over the humidity range and no hysteresis
same,Water uptake/loss,"[3]; DVS, 0 to 90% RH, 25° C.",4.03%
same,Water uptake/loss as equivalents of water,"[3]; DVS, 0 to 90% RH, 25° C.",about 1.5 equivalents of water
same,Flow of the solid post DVS,[3]; post DVS and exposure to 90% RH,free flowing
same,Form change post DVS (XRPD),"[3]; post DVS at 0% RH and at 90% RH, FIG. 5",no evidence of form change
same,solubility,"[4]; aqueous buffer, Acetate buffer, pH 4.5",0.02 mg/mL
same,solubility,"[4]; aqueous buffer, Phosphate buffer, pH 6.7",30 mg/mL
same,solubility,"[4]; aqueous with cosolvent or surfactant or cyclodextrin, NaCl,0.9%/DMSO/Tween 20",30.2 mg/mL
same,solubility,"[4]; fassgf or other biorelevant, SFaGF, pH 1.6",30.5 mg/mL
same,solubility,"[4]; organic solvent or mixture, PEG300",4.17 mg/mL
same,solubility,"[4]; saline or isotonic, Sodium chloride 0.9% w/v",30.5 mg/mL
same,solubility,"[4]; FaSSIF, pH 6.5",29.7 mg/mL
same,solubility,"[4]; FeSSIF, pH 5",10.9 mg/mL
same,solubility,"[4]; Water, deionised",30.2 mg/mL
